Consider 10 compounds from ChEMBL document CHEMBL3734655, “Identification of camphor derivatives as novel M2 ion channel inhibitors of influenza A virus” (Medchemcomm, 2015).

One may read the IC50 as the concentration that gives 50% inhibition. A higher IC50 goes with weaker potency.

The nature of data set [1]: Cytotoxicity against MDCK cells incubated for 72 hrs by CCK-8 assay. It is filed as cell-based, Canis lupus familiaris. As to conditions: dog. In general terms: Tetrazolium dyes change colour on reduction, which living cells bring about.
Data set [2] deals with Influenza A virus H3N2. Kind of data set: Antiviral activity against wild type M2 ion channel expressing Influenza A virus (A/Hong Kong/1968(H3N2)) infected in MDCK cells preincubated for 30 mins followed by viral infection measured after 72 hrs by CCK-8 assay. It is filed as functional, organism-based. The following applies: A/Hong Kong/1968, MDCK.
For data set [3], the system named is Influenza A virus H3N2. In words: Antiviral activity against wild type Influenza A virus (A/Hong Kong/1968(H3N2)) infected in MDCK cells assessed as reduction in size and number of plaque at 0.2 uM after 2 to 3 days by crystal violet staining based assay. Format: functional, organism-based.
For data set [4], the system named is Influenza A virus H3N2. Kind of data set: Antiviral activity against wild type Influenza A virus (A/Hong Kong/1968(H3N2)) infected in MDCK cells assessed as reduction in size and number of plaque at 1 uM after 2 to 3 days by crystal violet staining based assay. Format: functional, organism-based.
The subject of data set [5] is Influenza A virus H3N2. Kind of data set: Potency index, ratio of amantadine IC50 to compound IC50 for wild type M2 ion channel expressing Influenza A virus (A/Hong Kong/1968(H3N2)) infected in MDCK cells. Format: functional.

The source made the active and inactive calls. The rule behind the calls is not given here. A value given as a limit tells only on which side of the number the result lay.

In data set [1], `C[C@H]1[C@H]([C@H](C)N)C[C@@H]2C[C@H]1C2(C)C` displayed an MCC at 72 h above 300 µM. Also, the IC50 in data set [2] came to 1930 nM.
For `CC1(C)[C@H]2CC[C@](C)(C2)[C@H]1CN` the same measures were above 300 µM and 15700 nM.
Take `C[C@H]1[C@H](N)C[C@@H]2C[C@H]1C2(C)C`: the MCC at 72 h in data set [1] is above 300 µM. In data set [2], the midpoint of inhibition, the IC50, lay at 120 nM.
For the compound `NC12CC3CC(CC(C3)C1)C2` [AMANTADINE], the IC50 in data set [2] was found to be 500 nM.
For the compound `CC1(C)[C@@H]2CC[C@@]1(C)[C@@H](CN)C2`, the MCC at 72 h in data set [1] was above 300 µM. In data set [2], this compound had an IC50 of 290 nM.
As to `C[C@@H](N)[C@H]1C[C@H]2CC[C@]1(C)C2(C)C.Cl`, the result in data set [3] and in data set [4] was Active. The compound further registered an MCC at 72 h in data set [1] above 300 µM. Also, in data set [5], the “Ratio IC50” value is on record as 5. Moreover, the half-maximal inhibitory concentration (IC50) in data set [2] is 100 nM.
Turning to `C[C@H]1[C@H](CN)C[C@@H]2C[C@H]1C2(C)C`, in data set [1], the MCC at 72 h is above 300 µM. Further, the IC50 in data set [2] came out at 2470 nM.
The compound `N[C@H]1C[C@@H]2CC[C@H]1C2` registered an MCC at 72 h in data set [1] above 300 µM. The compound further displayed a 50% inhibitory concentration (IC50) in data set [2] of 12400 nM.
In the same order, the values of `CC1(C)[C@@H]2CC[C@@]1(C)[C@@H](N)C2` (relative stereo) are above 300 µM and 490 nM.
For `NC1CC2CCC1C2` (configuration not stated) the same measures were above 300 µM and 17400 nM.
